# PubChem BioAssay AID504930 (The Scripps Research Institute Molecular Screening Center, 2011)
# Tested on: granule cell progenitor proliferation, radioactive thymidine incorporation
# Assay: granule cell progenitor growth inhibitors – radioactive thymidine incorporation, counter-screen for Wee1 degradation inhibitor project, late-stage follow-up (AID 504930)
row,Structure (SMILES),IC50
1,c1ccc2[nH]c(CNc3nc(N4CCOCC4)nc4c3ncn4-c3ccsc3)nc2c1,11.6 nM
2,O=[N+]([O-])c1cccc2[nH]c(CNc3nc(N4CCOCC4)nc4c3ncn4-c3ccsc3)nc12,4.61 nM
